Assays:
[1] = test system: LNCAP FGC cells; experiment: Inhibition of LNCAP cell proliferation (WST-8, 96 hours); assay type: cell-based; conditions: LNCAP FGC cells, 96 hours, WST-8
Method: Test Example 8 Inhibitory activity of the compounds disclosed in the present disclosure on LNCAP cell proliferation
LNCAP FGC cells (ATCC, CLR-1740) were cultured in RPMI 1640 (ATCC, 30-2001) complete medium containing 10% fetal bovine serum (Hyclone, SH30406.05). On the first day of the experiment, LNCaP FGC cells were inoculated in 96-well plates at a density of 5,000 cells/well using RPMI 1640 medium containing 10% fetal bovine serum, with 100µL of cell suspension per well, and placed in a cell culture incubator with 5% CO2 at 37°C overnight. […] The compound concentrations were prepared in complete […] medium and serially diluted 5-fold starting from 10 µM, resulting in a total of nine concentration points. Wells receiving 100 µL of RPMI 1640 medium containing 10% FBS only were used as controls. The plates were incubated at 37°C in a 5% CO2 incubator for 96 hours.

[2] = molecular target: T1, AR protein (Homo sapiens, UniProt P10275); assay type: cell-based; conditions: 8 h
T1 construct: host or cells: VCaP
T1 sequence (P10275 1-920): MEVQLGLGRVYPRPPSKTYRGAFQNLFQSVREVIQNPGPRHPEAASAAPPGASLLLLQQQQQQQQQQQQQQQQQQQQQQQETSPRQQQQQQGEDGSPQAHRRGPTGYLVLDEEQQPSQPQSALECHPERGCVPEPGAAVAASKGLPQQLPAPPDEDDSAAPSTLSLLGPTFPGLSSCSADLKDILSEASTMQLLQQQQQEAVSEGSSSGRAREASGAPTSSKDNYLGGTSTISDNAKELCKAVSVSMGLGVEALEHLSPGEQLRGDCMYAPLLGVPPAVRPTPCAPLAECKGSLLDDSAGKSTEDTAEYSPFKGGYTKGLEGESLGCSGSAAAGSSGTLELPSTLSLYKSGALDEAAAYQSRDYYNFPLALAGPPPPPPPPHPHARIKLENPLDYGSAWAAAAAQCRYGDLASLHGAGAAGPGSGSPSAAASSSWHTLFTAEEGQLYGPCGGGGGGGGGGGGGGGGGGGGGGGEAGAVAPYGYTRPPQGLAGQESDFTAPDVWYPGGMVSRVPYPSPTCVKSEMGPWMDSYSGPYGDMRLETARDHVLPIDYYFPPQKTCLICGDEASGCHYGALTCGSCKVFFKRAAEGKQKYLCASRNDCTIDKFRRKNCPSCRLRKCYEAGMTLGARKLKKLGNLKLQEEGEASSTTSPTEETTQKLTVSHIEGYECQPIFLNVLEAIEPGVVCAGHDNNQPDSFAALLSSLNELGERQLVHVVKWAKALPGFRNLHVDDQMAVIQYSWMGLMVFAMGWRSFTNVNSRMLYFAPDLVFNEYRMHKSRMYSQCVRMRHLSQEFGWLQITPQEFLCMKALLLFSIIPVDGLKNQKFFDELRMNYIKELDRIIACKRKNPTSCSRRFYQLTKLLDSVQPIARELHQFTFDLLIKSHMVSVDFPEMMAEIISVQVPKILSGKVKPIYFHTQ
Method: Test Example 9 Degradation activity of the compounds disclosed in the present disclosure against AR protein in VCAP cells (cell source: ATCC)
AR-positive human prostate cancer cells, VCaP, were inoculated in six-well microplates (Thermo Catalog No. 140675) in DMEM (GiBco Catalog No. 11995-065) containing 10% FBS (Hyclone Catalog No. SH30406.05) at a density of 3 × 10^5 cells/well. […] After 8 h, the culture medium was discarded, and cells were washed with PBS, then RIPA lysis buffer containing 1% Protease Inhibitor Cocktail was added, and the total protein extract was obtained after lysis and centrifugation, and the protein concentration in the extract was detected by BCA method. Protein electrophoresis was carried out by SDS-PAGE, after which the protein was transferred to PVDF (Millipore Sigma catalog number PSRP010R5) membrane by 100V constant-voltage electrotransfer for 60 min, and the PVDF membrane was placed in 1×TBST solution with 5% milk and blocked at room temperature for 1 h. The primary antibody solution (Anti-Androgen receptor, Cell Signaling Technology Catalog No. 5153S; 1: 2000 dilution) was prepared and incubated overnight at 4°C. The primary antibody solution was discarded, and the PVDF membrane was washed three times with 1× TBST for 5 min each. The secondary antibody solution (Thermo catalog number SA5-35571; 1:7500 dilution) was prepared, and the secondary antibody dilution was incubated at room temperature for 1h. The secondary antibody solution was discarded, and the PVDF membrane was washed three times with 1×TBST for 5 min each. Western membrane imaging was performed using a dual-color infrared laser imaging system (Licor catalog number Odyssey CLX). Bands were analyzed in grayscale using the software Image Studio. For each sample, GAPDH protein bands were detected as internal reference. The degradation rates of the AR protein for the compounds and positive control sample were calculated based on the grayscale of the protein bands.

| SMILES | IC50 [1] [µM] | Degradation rates of the AR protein in VCAP cells, 0.5 nM [2] [%] | Degradation rates of the AR protein in VCAP cells, 5 nM [2] [%] |
| --- | --- | --- | --- |
| COc1cc(O[C@H]2C(C)(C)[C@H](NC(=O)c3ccc(N4CCC(CN5CCC6(CC5)COc5c6ccc6c5C(=O)N(C5CCC(=O)NC5=O)C6)(OC)CC4)cc3)C2(C)C)ccc1C#N (relative stereo) [2-293] | 88.1 | 72 | 89 |
| N#Cc1ccc(O[C@H]2CC[C@H](NC(=O)c3ccc(N4CCC(F)(CN5CCC6(CC5)COc5c6ccc6c5C(=O)N(C5CCC(=O)NC5=O)C6)CC4)nn3)CC2)cc1Cl (relative stereo) [2-315] | 2.45 | 31 | 71 |
| CC1(CN2CCC3(CC2)COc2c3ccc3c2C(=O)N(C2CCC(=O)NC2=O)C3)CCN(c2ccc(C(=O)N[C@H]3CC[C@H](Oc4ccc(C#N)c(Cl)c4)CC3)nn2)CC1 (relative stereo) [2-262] | 21.3 | 34 | 75 |
| COc1cc(O[C@H]2CC[C@H](NC(=O)c3ccc(N4CCC(C)(CN5CCC6(CC5)COc5c6ccc6c5C(=O)N(C5CCC(=O)NC5=O)C6)CC4)nn3)CC2)ccc1C#N (relative stereo) [2-261] | 49.1 | 44 | 82 |
| C[C@H]1CC2(CCN(c3ccc(N4CCC(CN5CCC6(CC5)COc5c6ccc6c5C(=O)N(C5CCC(=O)NC5=O)C6)CC4)cc3)CC2)CN1c1ccc(C#N)c(Cl)c1 (stereo partly drawn) [2-103] | 0.85 | 0 | 47 |
| COc1cc(O[C@H]2C(C)(C)[C@H](NC(=O)c3ccc(N4CCC(C)(CN5CCC6(CC5)COc5c6ccc6c5C(=O)N(C5CCC(=O)NC5=O)C6)CC4)cc3)C2(C)C)ccc1C#N (relative stereo) [2-292] | 68.5 | 30 | 72 |
| COc1cc(O[C@H]2C(C)(C)[C@H](NC(=O)c3ccc(N4CCC(CN5CCC6(CC5)COc5c6ccc6c5C(=O)N(C5CCC(=O)NC5=O)C6)CC4)cc3)C2(C)C)ccc1C#N (relative stereo) [2-318] | 9.85 | 55 | 78 |
| COC1(CN2CCC3(CC2)COc2c3ccc3c2C(=O)N(C2CCC(=O)NC2=O)C3)CCN(c2ccc(C(=O)N[C@H]3CC[C@H](Oc4ccc(C#N)c(Cl)c4)CC3)nn2)CC1 (relative stereo) [2-263] | 6.29 | 65 | 88 |
| COc1cc(O[C@H]2CC[C@H](NC(=O)c3ccc(N4CCC(F)(CN5CCC6(CC5)COc5c6ccc6c5C(=O)N(C5CCC(=O)NC5=O)C6)CC4)nn3)CC2)ccc1C#N (relative stereo) [2-316] | 68.2 | 35 | 61 |

Source: patent EP4656642A1, “ESTROGEN RECEPTOR PROTEOLYSIS TARGETING CHIMERA COMPOUND AND USE THEREOF” (GAN & LEE PHARM CO., LTD, priority 2023, dated 2024)
